Test systems include K-562 leukemia; EKVX NSCLC; RPMI-8226 leukemia; MDA-MB-231 breast; SK-OV-3 ovarian; SNB-19 CNS; OVCAR-5 ovarian; MDA-MB-435; LOX IMVI melanoma; UACC-257 melanoma.
Holding throughout (assay): NCI anticancer screen, dose series, 48 h

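Compound exposure: 48 hours, 5 concentrations, 96-well plates. TGI denotes the concentration required for complete inhibition of growth.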 A value given as a limit tells only on which side of the number the result lay.

Take `O=C1O[C@]2(c3ccccc3)C(c3ccccc3)=C[C@]2(C(=O)c2ccccc2)C1=O`: the TGI in the test with K-562 leukemia was 54.3 µM; in the test with EKVX NSCLC, > 100 µM; in the test with RPMI-8226 leukemia, 64.9 µM; in the test with MDA-MB-231 breast, 99.1 µM; with SK-OV-3 ovarian, > 100 µM; in the test on SNB-19 CNS it was > 100 µM. The TGI in the test on OVCAR-5 ovarian was > 100 µM; in the test on MDA-MB-435 it was > 100 µM; in the test with LOX IMVI melanoma it was 79 µM; with UACC-257 melanoma, > 100 µM.

Regarding `CC(=N\N=C\c1ccccn1)/C(C)=N/N=C(C)/C(C)=N/N=C(C)/C(C)=N/N=C/c1ccccn1`, the TGI in the test on K-562 leukemia, in the test on EKVX NSCLC, in the test with RPMI-8226 leukemia, with MDA-MB-231 breast, with SK-OV-3 ovarian and in the test on SNB-19 CNS was > 100 µM in each case. Besides, the TGI in the test with OVCAR-5 ovarian, in the test on MDA-MB-435, in the test on LOX IMVI melanoma and in the test on UACC-257 melanoma was > 100 µM throughout.

As to `C[C@H](CCC1=NCCN1)[C@H]1CC[C@H]2[C@@H]3CC[C@@H]4C[C@H](O)CC[C@]4(C)[C@H]3C[C@H](O)[C@]12C`, the TGI in the test on K-562 leukemia is 21 µM; with EKVX NSCLC it was 34.4 µM; in the test with RPMI-8226 leukemia it was 30 µM; in the test on MDA-MB-231 breast, 34 µM; in the test on SK-OV-3 ovarian, 31.9 µM; with SNB-19 CNS it was 21 µM. Further, the TGI with OVCAR-5 ovarian came to 28.1 µM; in the test with MDA-MB-435 it was 28.9 µM; in the test with LOX IMVI melanoma it was 29.3 µM; in the test with UACC-257 melanoma, 28.7 µM.

As for `Nc1c(S(=O)(=O)O)cc(Nc2cccc(S(=O)(=O)/C=C/S(=O)(=O)O)c2)c2c1C(=O)c1ccccc1C2=O`, the TGI in the test on K-562 leukemia, with EKVX NSCLC, in the test with RPMI-8226 leukemia, with MDA-MB-231 breast, in the test on SK-OV-3 ovarian and in the test on SNB-19 CNS was > 100 µM in each case. The TGI in the test on OVCAR-5 ovarian, with MDA-MB-435, in the test on LOX IMVI melanoma and in the test with UACC-257 melanoma was > 100 µM each time.

As to `CN1CC2CC(C1)c1cccc(=O)n1C2` (stereo not given), the TGI in the test on EKVX NSCLC, with MDA-MB-231 breast, in the test on SK-OV-3 ovarian, in the test on SNB-19 CNS, in the test with OVCAR-5 ovarian and in the test with MDA-MB-435 was > 100 µM throughout. For the same compound, the TGI in the test with LOX IMVI melanoma and with UACC-257 melanoma was > 100 µM in each case.

Turning to `N#Cc1nc(/C=C/c2ccccc2)oc1N`, the TGI with K-562 leukemia, in the test with EKVX NSCLC, in the test on RPMI-8226 leukemia, in the test on MDA-MB-231 breast, in the test on SK-OV-3 ovarian and with SNB-19 CNS was > 100 µM in each case. Also, the TGI in the test with OVCAR-5 ovarian, in the test on MDA-MB-435, with LOX IMVI melanoma and with UACC-257 melanoma was > 100 µM each time.

For the compound `COc1ccc(/C=C2\CN(C)Cc3c2[nH]c(=O)c(C#N)c3-c2ccc(OC)cc2)cc1`, the TGI is > 100 µM with K-562 leukemia; > 100 µM with EKVX NSCLC; 71.6 µM with RPMI-8226 leukemia; > 100 µM with MDA-MB-231 breast; > 100 µM with SK-OV-3 ovarian; > 100 µM in the test with SNB-19 CNS. Besides, the TGI in the test on OVCAR-5 ovarian, in the test with MDA-MB-435, in the test with LOX IMVI melanoma and in the test on UACC-257 melanoma was > 100 µM throughout.

As for `CC(C)CCC/C(CBr)=C(\Cl)CCl`, the TGI amounted to 30.3 µM in the test on EKVX NSCLC; 8.34 µM in the test with MDA-MB-231 breast; 22.3 µM in the test on SK-OV-3 ovarian; 28.6 µM in the test on SNB-19 CNS; 29.1 µM in the test with OVCAR-5 ovarian; 6.25 µM in the test with MDA-MB-435. Further, the TGI in the test on LOX IMVI melanoma turned out to be 0.542 µM; in the test on UACC-257 melanoma, 4.78 µM.

On to `COc1ccc2c(c1)-c1oc3ccccc3c(=O)c1CO2`, for which the TGI in the test with K-562 leukemia was > 100 µM; in the test with EKVX NSCLC, > 100 µM; with RPMI-8226 leukemia it was > 100 µM; in the test on MDA-MB-231 breast it was 90.8 µM; in the test on SK-OV-3 ovarian, > 100 µM; with OVCAR-5 ovarian it was > 100 µM. In addition, the TGI with MDA-MB-435 was > 100 µM; in the test on LOX IMVI melanoma it was 44.5 µM; in the test with UACC-257 melanoma, 99.3 µM.

As for `CCOC(=O)C(C)c1nc2cc(N3CCN(C)CC3)c(F)cc2[nH]c1=O` (stereo not given), the TGI with K-562 leukemia, with EKVX NSCLC, with RPMI-8226 leukemia, in the test with MDA-MB-231 breast, in the test with SK-OV-3 ovarian and in the test with SNB-19 CNS was > 100 µM in each case. For the same compound, the TGI in the test on OVCAR-5 ovarian, in the test with MDA-MB-435 and with UACC-257 melanoma was > 100 µM each time.

With `CC(C)(NC1=NCCO1)c1ccccc1`, the TGI with EKVX NSCLC, in the test on RPMI-8226 leukemia, in the test with MDA-MB-231 breast, with SK-OV-3 ovarian, in the test on SNB-19 CNS and in the test on OVCAR-5 ovarian was > 100 µM in each case. Moreover, the TGI in the test with MDA-MB-435, in the test on LOX IMVI melanoma and in the test on UACC-257 melanoma was > 100 µM throughout.

Take `CC(C)C(C/C=C1\CC(CO)(COC(=O)CC(C(C)C)C(C)C)OC1=O)C(C)C` (stereo not given): the TGI in the test with K-562 leukemia came to 19.6 µM; in the test on EKVX NSCLC, 23.5 µM; in the test with MDA-MB-231 breast it was 27.2 µM; in the test on SK-OV-3 ovarian, 32.1 µM; with SNB-19 CNS, 26.5 µM; with OVCAR-5 ovarian, 26.9 µM. The values for the TGI in the test with MDA-MB-435, with LOX IMVI melanoma and in the test on UACC-257 melanoma were 19.7 µM, 27.3 µM and 29.5 µM, respectively.

With `CCS(=O)(=O)c1c2cc(OC)ccc2nc2ccc(OC)cc12`, the TGI in the test with K-562 leukemia, in the test on EKVX NSCLC, with MDA-MB-231 breast, with SK-OV-3 ovarian, in the test on SNB-19 CNS and in the test with OVCAR-5 ovarian was > 100 µM in each case. Besides, the TGI in the test with MDA-MB-435, in the test with LOX IMVI melanoma and with UACC-257 melanoma was > 100 µM throughout.

`O=C(O)c1ccc(Nc2nc3ccccc3nc2C(=O)O)cc1`: the TGI in the test on K-562 leukemia, in the test on EKVX NSCLC, in the test on RPMI-8226 leukemia, in the test with MDA-MB-231 breast, in the test with SK-OV-3 ovarian and with SNB-19 CNS was > 100 µM each time. For the same compound, the TGI in the test on OVCAR-5 ovarian, in the test with MDA-MB-435 and in the test on UACC-257 melanoma was > 100 µM each time.

The record behind these values is PubChem BioAssay (NCI).
